These results are taken from patent US12039796B2, “Method for classifying cells” (Sartorius BioAnalytical Instruments, Inc., priority 2019, dated 2024).

Structures are written as SMILES. Read-outs that look alike come from different tables or passages of the source.

The subject of one test is HT1080 fibrosarcoma. Kind of test: HT1080 fibrosarcoma apoptosis time course, multiplexed NucLight Red (viability) and Caspase 3/7 Green (apoptosis) readouts with cell-by-cell analysis. Type of test: cell-based. The procedure:
Example implementations permit cell health to be tracked in sub-populations over time. […] Cell health was determined with multiplexed readouts of Incucyte® NucLight Red (nuclear viability marker) and non-perturbing Incucyte® Caspase 3/7 Green Reagent (apoptotic indicator). […] Values shown are the mean±SEM of 3 wells.
Cell health was determined with multiplexed readouts of Incucyte® NucLight Red (nuclear viability marker) and non-perturbing Incucyte® Caspase 3/7 Green Reagent (apoptotic indicator). […] Values shown are the mean±SEM of 3 wells.

A further test relates to A549 cells. Kind of test: A549 cell death concentration response, cells classed Dead or Live by Annexin V fluorescence or by label-free trained model. Type of test: cell-based. The following applies: Homo sapiens, A549, 72 h, 0.1-10 μM, FIG. 16C. As to the method:
The classification methods described herein facilitate classification of cells with an accuracy that approximates the accuracy of fluorophore-based methods. This allows for accurate classification without the expense, complexity, or experimental confounding effects that may be associated with the use of fluorescent labels. In an experiment, A549 cells were treated with increasing concentrations of the cytotoxic compound camptothecin (0.1-10 μM) for 72 h in the presence of Annexin V reagent. The cells were classed as Dead or Live based on fluorescence Annexin response (live cells=low fluorescence, dead cells=high fluorescence). The metric-based methods described herein were used to train a model using label-free features of dead (10 μM, 72 h) and live (vehicle, 0-72 h) cells.

[1] abbreviates: HT1080, after treatment, FIG. 6C.

A word on the EC50: it is the concentration needed to bring the measured effect to its halfway point.

For `C[C@@H]1C[C@@H]([C@H](O)CC2CC(=O)NC(=O)C2)C(=O)[C@@H](C)C1` [CHX, cyclohexamide], in the test with HT1080 fibrosarcoma (HT1080, after treatment, FIG. 6G), the apoptosis entry was “lack of apoptosis”. Moreover, the cell counts result in the test with HT1080 fibrosarcoma (HT1080, after treatment, FIG. 6G (data not shown)) was “decrease in cell counts”.
With `CC[C@@]1(O)C(=O)OCc2c1cc1n(c2=O)Cc2cc3ccccc3nc2-1` [camptothecin], the “green fluorescence (late apoptosis)” value in the test on HT1080 fibrosarcoma (HT1080, after 24 hours, FIG. 6C) is reported as “increasing green fluorescence after 24 hours indicating late apoptosis”. The “red and green fluorescence (early apoptosis)” value in the test on HT1080 fibrosarcoma (setting [1]) is “increasing red and green fluorescence indicating early apoptosis”. The “red population (NucLight Red, viable cells)” value with HT1080 fibrosarcoma (setting [1]) is reported as “decrease in the red population”. Moreover, the EC50 is 660 nM in the test with A549 cells (Annexin V fluorescence-based classification, read-out: Annexin V EC50 (% death)) and 530 nM in the test on A549 cells (label-free metric-based trained model classification, read-out: Label-free EC50 (% death)).
